Data: patent US20220396794A1, “APTAMERS AGAINST TRANSFERRIN RECEPTOR (TfR)” (APTERNA LIMITED, priority 2019, published 2022)

Legend:
C/EBPα mRNA [1] = assay: Relative gene expression by qPCR in vitro, C/EBPα; assay type: cell-based, human
Description: (§1) Relative gene expression analysis by qPCR in vitro. For analyzing gene activation and protein expression, PANC-1 cells were seeded in duplicate into 24-well plates at a density of 1×10^5 cells per well. tTR14 or control aptamer (IRRE) conjugated to C/EBPα-saRNAs were added directly to the cells, at a final concentration of 100 nM or 200 nM. The treatment was repeated 24 h later and cells were harvested at final incubation times of 48 or 72 h. Total RNA was extracted for reverse transcription using an RNeasy kit (Qiagen). Target cDNA amplification and real-time PCR was performed using a Bio-rad kit (SsoAdvanced™ Universal SYBR® Green Supermix). For normalization, the reference gene 18S was used. To determine gene expression in vivo samples, total RNA was extracted for reverse transcription (QuantiFast® Reverse transcription, Qiagen) and target cDNA was amplified using real-time PCR (QuantiFast® SYBR®Green Master mix). The cDNA probes used were purchased as prevalidated QuantiTect® SYBR probes from Qiagen. Real-time PCR was performed with validated QuantiTect® SYBR probes (Qiagen) or validated FAM probes (Applied Biosystems).

p21 mRNA = assay: Relative gene expression by qPCR in vitro, p21; assay type: cell-based, human
Description: as §1

PANC-1 cells = assay: MTS assay, inhibition of cell proliferation; assay type: cell-based, human
Description: MTS assay. […] Cells were treated with tTR14-C/EBPα and […] at 100 nM or 200 nM twice at 24-h intervals.

PANC-Luc tumors = assay: Liver-metastatic pancreatic cancer mouse model, combinational treatment with gemcitabine; assay type: in vivo, NOD/SCID mice; details: conjugate 1 nmol 3 times/week I.P. combined with gemcitabine 50 mg/kg 2 times/week I.V., compared with PBS
Description: Intrahepatic pancreatic cancer liver-metastatic mouse model. To create an animal model harboring traceable tumors, a firefly luciferase fragment was inserted into the pLKO.1-AS3 backbone encoding the neo gene (National RNAi Core, Academia Sinica, Taiwan). One day before transduction, 293T cells were plated onto a 6-well plate. On the day of transduction, the medium was replaced with DMEM containing serial dilutions of the transfer plasmids and incubated for 5 h, then the medium was replaced. After two days, the culture medium containing recombinant lentiviral particles was obtained. PANC-1 cells were incubated with recombinant lentiviral particles for 24 h. […] Luciferase expression was assessed using the Luciferase Assay System. […] For the combinational treatment with gemcitabine, tumors were allowed to grow for 2 weeks after inoculation until they could be detected using an IVIS system, then mice were randomly divided into five groups of 10 animals/group. […] Tumor growth was monitored by evaluating bioluminescence using an IVIS 200 in vivo imaging platform (Caliper Life Sciences, Alameda, Calif.) and measuring the difference from before the first injection and one day after the last injection. […] The mice were imaged using the IVIS 200 and bioluminescent signals were analyzed using Living Image Software (Caliper Life Sciences, Alameda, Calif.). […]

C/EBPα mRNA [2] = assay: Analysis of gene expression in vivo in C57BL/6J mice, C/EBPα; details: B6 mice, 3 doses of 1 nmol via tail vein
Description: as §1
(§2) Analysis of gene expression in vivo. Female or male at 6 week C57BL/6J mice were purchased from the Jackson laboratory for three conjugates; TC, TCT, and TCUT. […]

albumin mRNA = assay: Analysis of gene expression in vivo in C57BL/6J mice, albumin; details: B6 mice, 3 doses of 1 nmol via tail vein, tissue harvesting on day 8
Description: as §1, §2

[3] = PANC-1, 100 nM, 48 or 72 h (FIG. 7)
[4] = PANC-1, 72 h, 100 nM, compared to IRRE control group (FIG. 3)

Substance: TCUT: TR14 ST1-3 with CEBPA sense, a 10-uracil spacer and albumin affinity tag (UUUAUUCACAUUUUUGAAUUGAGCGGUCAUUGUCACUGGUCUUUUUUUUUUUUN; listed as RNA, chemistry not given here)
- upregulation of C/EBPα (C/EBPα mRNA [1]; [3]): upregulation
- mRNA expression of C/EBPα (C/EBPα mRNA [1]; [4]): upregulation
- upregulation of p21 (p21 mRNA; [3]): upregulation
- mRNA expression of p21 (p21 mRNA; [4]): upregulation
- cell proliferation by MTS assay (PANC-1 cells; [3]): inhibited the cancer cell proliferation
- cell proliferation by MTS assay (PANC-1 cells; PANC-1, 72 h, compared to IRRE control group (FIG. 3)): inhibition of tumor cell proliferation
- tumor burden by measuring photon increase (PANC-Luc tumors): significant reduction of tumor burden
- mRNA levels of C/EBPα in brain tissue (C/EBPα mRNA [2]; tissue harvesting on day 8): no upregulation
- mRNA levels of C/EBPα in liver (C/EBPα mRNA [2]; tissue harvesting on day 8, compared to untreated group): increased
- albumin mRNA levels in liver (albumin mRNA): none increased
